Reference: ChEMBL document CHEMBL1201862, “PubChem BioAssay data set” (2004)
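These data come from cells grown in 96-well plates and exposed to compound for 48 hours at five concentrations. The concentration for 50% growth inhibition is given as GI50.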 Activity calls are given as the source filed them. No stated cut-off is given here; in the data, active = GI50 up to about 1.1 µM and inactive = higher.

Tests used:
Assay in all cases: DTP human tumour cell line panel, 48 h
HCT-116 = system: HCT-116
RXF 393 = system: RXF 393
OVCAR-4 = system: OVCAR-4
MOLT-4 = system: MOLT-4
OVCAR-8 = system: OVCAR-8
SK-OV-3 = system: SK-OV-3
CCRF-CEM = system: CCRF-CEM
UO-31 = system: UO-31
K562 = system: K562
NCI-H23 = system: NCI-H23
Malme-3M = system: Malme-3M
NCI-H226 = system: NCI-H226
SF-539 = system: SF-539
RPMI-8226 = system: RPMI-8226
SK-MEL-5 = system: SK-MEL-5
SNB-19 = system: SNB-19
UACC-257 = system: UACC-257
TK-10 = system: TK-10
UACC-62 = system: UACC-62
LOX IMVI = system: LOX IMVI

Row | Structure (SMILES) | GI50 (HCT-116) | GI50 (RXF 393) | GI50 (OVCAR-4) | GI50 (MOLT-4) | GI50 (OVCAR-8) | GI50 (SK-OV-3) | GI50 (CCRF-CEM) | GI50 (UO-31) | GI50 (K562) | GI50 (NCI-H23) | GI50 (Malme-3M) | GI50 (NCI-H226) | GI50 (SF-539) | GI50 (RPMI-8226) | GI50 (SK-MEL-5) | GI50 (SNB-19) | GI50 (UACC-257) | GI50 (TK-10) | GI50 (UACC-62) | GI50 (LOX IMVI)
1 | O=C(Nc1ccc(Cl)cc1)c1cc2cc(/N=N/c3ccccc3Cl)ccc2oc1=O | 11.2 µM (inactive) | 46.9 µM (inactive) | 22 µM (inactive) | 2.58 µM (inactive) | 13.4 µM (inactive) | 46.9 µM (inactive) | 2.01 µM (inactive) | 11.6 µM (inactive) | 5.28 µM (inactive) | 13.3 µM (inactive) | 18.5 µM (inactive) | 22.3 µM (inactive) | 14 µM (inactive) | 4.76 µM (inactive) | 22.2 µM (inactive) | 27.5 µM (inactive) | 19.2 µM (inactive) | 33.3 µM (inactive) | 8.39 µM (inactive) | 
2 | O=C(Nc1cccc([N+](=O)[O-])c1)C(=O)C(C(=O)c1ccccc1F)C1OC(=O)C2C=CC=CC21 (centres undefined) | 19.4 µM (inactive) | 18.5 µM (inactive) | 47.2 µM (inactive) | 32 µM (inactive) | 30.3 µM (inactive) | 41.3 µM (inactive) | 27.3 µM (inactive) | 44.1 µM (inactive) | 31.8 µM (inactive) | 25.1 µM (inactive) |  | 13.4 µM (inactive) | 24 µM (inactive) | 23.8 µM (inactive) | 73.1 µM (inactive) | 29.9 µM (inactive) | 82 µM (inactive) | > 100 µM (inactive) | 28 µM (inactive) | 21.1 µM (inactive)
3 | N/C(=N\O)N/N=C\c1ccc(O)c(O)c1O | 27.5 µM (inactive) | 18.9 µM (inactive) | 10.9 µM (inactive) | 24.9 µM (inactive) | 30.4 µM (inactive) | > 100 µM (inactive) | 17.3 µM (inactive) | > 100 µM (inactive) | 17.8 µM (inactive) | 24.4 µM (inactive) | > 100 µM (inactive) | 39.1 µM (inactive) | > 100 µM (inactive) | 41.5 µM (inactive) | 19.8 µM (inactive) | > 51.9 µM (inactive) | 63.7 µM (inactive) |  | 17.3 µM (inactive) | 16.3 µM (inactive)
4 | S=c1sc2c(s1)SC(c1ccccc1)CS2 (centres undefined) | > 100 µM (inactive) | 25.1 µM (inactive) | 20.4 µM (inactive) | > 100 µM (inactive) | > 100 µM (inactive) | > 100 µM (inactive) | > 100 µM (inactive) | > 100 µM (inactive) | > 100 µM (inactive) | > 100 µM (inactive) | > 100 µM (inactive) | > 100 µM (inactive) | > 100 µM (inactive) | > 100 µM (inactive) | > 100 µM (inactive) | > 100 µM (inactive) | > 21.7 µM (inactive) |  | > 100 µM (inactive) | > 86.3 µM (inactive)
5 | C=CCCC(On1c(-c2ccc(Cl)cc2)csc1=S)c1ccccc1 (centres undefined) | 7.03 µM (inactive) | 29.7 µM (inactive) | 38.5 µM (inactive) | 7.62 µM (inactive) | 98.6 µM (inactive) |  | 12.4 µM (inactive) | 42 µM (inactive) | 9.51 µM (inactive) | 39.4 µM (inactive) | 14.6 µM (inactive) | 26.7 µM (inactive) | 26.9 µM (inactive) | 31.8 µM (inactive) | 14.9 µM (inactive) | 35.6 µM (inactive) | 33 µM (inactive) | 83.4 µM (inactive) | 36.7 µM (inactive) | 33.6 µM (inactive)
6 | CSc1nc(NC2OCC(OC(C)=O)C(OC(C)=O)C2OC(C)=O)c(/N=C(\C)C(C)=O)c(=O)[nH]1 (centres undefined) | > 100 µM (inactive) | > 100 µM (inactive) | > 100 µM (inactive) | > 100 µM (inactive) | > 100 µM (inactive) |  | > 100 µM (inactive) |  | > 100 µM (inactive) | > 100 µM (inactive) | > 100 µM (inactive) | 0.164 µM (active) | > 100 µM (inactive) | > 100 µM (inactive) | > 100 µM (inactive) | > 100 µM (inactive) | > 100 µM (inactive) | > 100 µM (inactive) |  | > 100 µM (inactive)
7 | O=C(Nc1ccc2[nH]c3c(-c4ccccc4)nccc3c2c1)c1ccccc1[N+](=O)[O-] | 5.71 µM (inactive) | 1.83 µM (inactive) | 36.9 µM (inactive) | 2.22 µM (inactive) | 8.11 µM (inactive) |  | 5.93 µM (inactive) |  | 4.06 µM (inactive) | 4.37 µM (inactive) | 1.82 µM (inactive) | 2.3 µM (inactive) | 1.37 µM (inactive) | 1.61 µM (inactive) |  | 5.58 µM (inactive) | 4.11 µM (inactive) | 4.18 µM (inactive) |  | 2.92 µM (inactive)
8 | COC(=O)C(C)NP(=O)(N1CC1)N1CC1 (centres undefined) |  | > 100 µM (inactive) | > 100 µM (inactive) | 40.3 µM (inactive) | > 100 µM (inactive) | > 100 µM (inactive) | 47.6 µM (inactive) | > 100 µM (inactive) | > 100 µM (inactive) | 97.3 µM (inactive) | > 100 µM (inactive) |  | > 100 µM (inactive) | > 100 µM (inactive) | > 100 µM (inactive) | > 100 µM (inactive) | > 100 µM (inactive) | > 100 µM (inactive) | 61.8 µM (inactive) | 80 µM (inactive)
9 | Cc1ccc(C)c(NC(=O)CCC(=O)CC(=O)C(C)(C)C)c1 | > 100 µM (inactive) | > 100 µM (inactive) | > 100 µM (inactive) | > 100 µM (inactive) | > 100 µM (inactive) | > 100 µM (inactive) | > 100 µM (inactive) | > 100 µM (inactive) | > 100 µM (inactive) | > 100 µM (inactive) | > 100 µM (inactive) |  | > 100 µM (inactive) | > 100 µM (inactive) | > 100 µM (inactive) | > 100 µM (inactive) | > 100 µM (inactive) | > 100 µM (inactive) | > 100 µM (inactive) | > 100 µM (inactive)
10 | O=S(=O)(C1=CC(S(=O)(=O)c2ccccc2)CN(Cc2ccccc2)C1c1cccc2ccccc12)c1ccccc1 (centres undefined) | > 69 µM (inactive) | 25.4 µM (inactive) | > 69 µM (inactive) | > 69 µM (inactive) | > 69 µM (inactive) | > 69 µM (inactive) | > 69 µM (inactive) | > 69 µM (inactive) | > 69 µM (inactive) | > 69 µM (inactive) | > 69 µM (inactive) | 14.6 µM (inactive) | > 69 µM (inactive) | > 69 µM (inactive) | > 69 µM (inactive) | > 69 µM (inactive) | > 69 µM (inactive) | > 69 µM (inactive) | > 69 µM (inactive) | > 69 µM (inactive)
11 | CCOC(=O)Cc1cnc(NC(NC(=O)CC)(C(F)(F)F)C(F)(F)F)s1 | > 100 µM (inactive) | > 100 µM (inactive) |  | > 100 µM (inactive) |  | > 100 µM (inactive) | > 100 µM (inactive) | > 100 µM (inactive) | > 100 µM (inactive) | > 100 µM (inactive) | > 100 µM (inactive) | > 100 µM (inactive) | > 100 µM (inactive) | > 100 µM (inactive) |  | > 100 µM (inactive) | > 100 µM (inactive) | > 100 µM (inactive) | > 100 µM (inactive) | > 100 µM (inactive)
12 | CNC(=O)OC(C)CN1c2ccccc2Sc2ccc(Cl)cc21 (centres undefined) | > 10 µM (inactive) | > 10 µM (inactive) | > 10 µM (inactive) | > 10 µM (inactive) | > 10 µM (inactive) | > 10 µM (inactive) | > 10 µM (inactive) | > 10 µM (inactive) | > 10 µM (inactive) | > 10 µM (inactive) | > 10 µM (inactive) | > 10 µM (inactive) | > 10 µM (inactive) | > 10 µM (inactive) | > 10 µM (inactive) | > 10 µM (inactive) |  | > 10 µM (inactive) | > 10 µM (inactive) | > 10 µM (inactive)
13 | COc1cc(/N=N\c2cccc(S(=O)(=O)O)c2)ccc1/N=N\c1ccc(/C=C/c2ccc(-n3on3-c3ccc(/C=C/c4ccc(/N=N/c5ccc(/N=N\c6cccc(S(=O)(=O)O)c6)cc5OC)cc4S(=O)(=O)O)c(S(=O)(=O)O)c3)cc2S(=O)(=O)O)c(S(=O)(=O)O)c1 | > 100 µM (inactive) | > 100 µM (inactive) | > 100 µM (inactive) | > 100 µM (inactive) | > 100 µM (inactive) | > 100 µM (inactive) | > 100 µM (inactive) | > 100 µM (inactive) | > 100 µM (inactive) | > 100 µM (inactive) | > 100 µM (inactive) | > 100 µM (inactive) | > 100 µM (inactive) | > 100 µM (inactive) | > 100 µM (inactive) | > 100 µM (inactive) | > 100 µM (inactive) |  | > 100 µM (inactive) | > 100 µM (inactive)
14 | COc1cc(C2c3cc4c(cc3[C@@H](Nc3ccc(Oc5ccccc5)cc3)C3COC(=O)[C@H]23)OCO4)cc(OC)c1O (some centres undefined) | 0.979 µM (active) | 1.29 µM (inactive) | 7.11 µM (inactive) | 0.329 µM (active) | 4.5 µM (inactive) | 4.93 µM (inactive) | 0.431 µM (active) | 2.59 µM (inactive) | 1.14 µM (inactive) | 1.12 µM (inactive) | 3.7 µM (inactive) | 1.56 µM (inactive) | 0.536 µM (active) | 1.08 µM (active) | 1.58 µM (inactive) | 3.27 µM (inactive) | 1.22 µM (inactive) |  | 0.869 µM (active) | 2.43 µM (inactive)
